Source: patent US20030144336A1, “Method of selecting nonsedating H1-antagonists” (priority 2001, published 2003)
Read-outs that look alike come from different tables or passages of the source. Values belong to the compound of their own block, whether it stands above or below them.

Assays:
P-gp (mdr1a/1b) [1] = target: T1, P-gp (mdr1a/1b) (Mus musculus, UniProt P21447); conditions: male, FVB and mdr1a/1b KO, in vivo
P-gp (mdr1a/1b) [2] = target: T1, P-gp (mdr1a/1b); test: in vivo; conditions: male, iv, 5 mg/kg
MDR1 (P-gp) [3] = target: T2, MDR1 (P-gp) (Homo sapiens, UniProt P08183)
T2 sequence (P08183 whole entry): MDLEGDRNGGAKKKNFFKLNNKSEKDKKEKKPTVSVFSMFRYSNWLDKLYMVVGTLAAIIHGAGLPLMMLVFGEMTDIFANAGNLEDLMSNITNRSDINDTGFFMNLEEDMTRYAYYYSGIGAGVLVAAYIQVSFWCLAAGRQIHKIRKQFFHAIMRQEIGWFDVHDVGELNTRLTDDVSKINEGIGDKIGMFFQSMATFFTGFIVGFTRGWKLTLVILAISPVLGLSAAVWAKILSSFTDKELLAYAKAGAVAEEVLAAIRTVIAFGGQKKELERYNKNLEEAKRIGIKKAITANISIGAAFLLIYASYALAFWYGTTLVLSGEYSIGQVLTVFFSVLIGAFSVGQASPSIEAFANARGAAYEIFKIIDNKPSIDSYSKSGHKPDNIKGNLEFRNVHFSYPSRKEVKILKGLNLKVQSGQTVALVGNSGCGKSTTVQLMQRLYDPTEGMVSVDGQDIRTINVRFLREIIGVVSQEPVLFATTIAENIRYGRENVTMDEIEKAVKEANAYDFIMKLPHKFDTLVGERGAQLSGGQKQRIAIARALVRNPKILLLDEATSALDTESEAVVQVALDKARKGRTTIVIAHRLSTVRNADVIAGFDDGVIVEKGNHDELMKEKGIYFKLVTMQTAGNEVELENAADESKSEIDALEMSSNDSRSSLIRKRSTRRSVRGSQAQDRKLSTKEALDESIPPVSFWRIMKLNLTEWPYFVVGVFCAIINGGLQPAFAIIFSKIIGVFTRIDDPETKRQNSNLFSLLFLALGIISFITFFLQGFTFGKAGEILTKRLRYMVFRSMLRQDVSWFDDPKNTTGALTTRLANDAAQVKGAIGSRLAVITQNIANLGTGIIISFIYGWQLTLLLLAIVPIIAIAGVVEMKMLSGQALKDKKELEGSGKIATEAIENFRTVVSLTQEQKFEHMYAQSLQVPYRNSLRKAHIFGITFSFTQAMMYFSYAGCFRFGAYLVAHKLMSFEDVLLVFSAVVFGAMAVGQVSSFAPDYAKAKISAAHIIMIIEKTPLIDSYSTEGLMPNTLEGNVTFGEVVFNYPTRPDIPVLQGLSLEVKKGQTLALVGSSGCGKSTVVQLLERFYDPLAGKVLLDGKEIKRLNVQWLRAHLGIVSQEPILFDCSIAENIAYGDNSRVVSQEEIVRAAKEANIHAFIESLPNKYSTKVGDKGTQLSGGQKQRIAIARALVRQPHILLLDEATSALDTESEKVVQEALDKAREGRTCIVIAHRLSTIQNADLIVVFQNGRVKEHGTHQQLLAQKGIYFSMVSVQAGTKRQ

in vivo = conditions: male, mouse, iv, 5 mg/kg
MDR1 (P-gp) [4] = target: T2, MDR1 (P-gp); test: in vitro; conditions: MDCK-MDR1
P-gp = conditions: literature reports; cited from earlier work
P-gp (mdr1a/1b) [5] = target: T1, P-gp (mdr1a/1b); test: Blood-brain distribution of H1-antagonists in WT mice and mdr1a/1b KO mice; conditions: WT and KO mice, post i.v. dose
[6] = as above; conditions: male, FVB, mouse, brain, iv, 5 mg/kg

T1 sequence (P21447 whole entry): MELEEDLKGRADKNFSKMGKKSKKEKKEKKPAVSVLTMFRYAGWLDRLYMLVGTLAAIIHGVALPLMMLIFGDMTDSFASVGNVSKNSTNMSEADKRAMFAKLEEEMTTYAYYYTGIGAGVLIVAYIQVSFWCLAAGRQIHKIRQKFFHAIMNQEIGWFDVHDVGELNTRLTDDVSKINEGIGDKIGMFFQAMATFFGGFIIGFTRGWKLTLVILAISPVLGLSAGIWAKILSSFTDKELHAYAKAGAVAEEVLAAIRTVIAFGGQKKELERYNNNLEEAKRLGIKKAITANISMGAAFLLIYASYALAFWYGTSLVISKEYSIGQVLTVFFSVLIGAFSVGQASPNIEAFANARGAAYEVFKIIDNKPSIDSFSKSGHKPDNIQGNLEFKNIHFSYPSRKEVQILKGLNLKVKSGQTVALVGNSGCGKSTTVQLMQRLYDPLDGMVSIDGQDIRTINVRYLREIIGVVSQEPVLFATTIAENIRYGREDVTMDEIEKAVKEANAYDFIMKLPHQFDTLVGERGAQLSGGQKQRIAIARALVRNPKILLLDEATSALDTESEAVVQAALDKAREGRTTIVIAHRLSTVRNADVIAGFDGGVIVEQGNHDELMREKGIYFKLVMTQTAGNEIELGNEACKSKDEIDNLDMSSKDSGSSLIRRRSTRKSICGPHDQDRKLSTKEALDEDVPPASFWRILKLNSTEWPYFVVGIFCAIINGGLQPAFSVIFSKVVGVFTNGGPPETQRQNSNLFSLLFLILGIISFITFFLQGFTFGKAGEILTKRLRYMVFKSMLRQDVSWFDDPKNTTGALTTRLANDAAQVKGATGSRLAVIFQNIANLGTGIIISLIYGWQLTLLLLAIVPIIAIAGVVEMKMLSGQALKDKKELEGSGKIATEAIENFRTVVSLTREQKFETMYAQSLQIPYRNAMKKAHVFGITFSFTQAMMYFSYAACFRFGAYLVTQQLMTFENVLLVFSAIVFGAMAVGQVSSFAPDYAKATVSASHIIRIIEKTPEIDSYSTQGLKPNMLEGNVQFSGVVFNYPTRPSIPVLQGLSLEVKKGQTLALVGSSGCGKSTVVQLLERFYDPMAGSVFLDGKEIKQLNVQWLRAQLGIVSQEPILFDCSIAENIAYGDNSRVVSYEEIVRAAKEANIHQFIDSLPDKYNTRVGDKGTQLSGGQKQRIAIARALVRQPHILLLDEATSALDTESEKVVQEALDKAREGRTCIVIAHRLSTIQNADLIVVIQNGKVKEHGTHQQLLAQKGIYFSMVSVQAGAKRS

AUC ratio of brain tissue to plasma (WT vs. KO comparison) (P-gp (mdr1a/1b) [1]): approximately 1
time of peak brain tissue concentration (P-gp (mdr1a/1b) [1]; iv): 2 min
Kp (P-gp (mdr1a/1b) [2]; FVB and mdr1a/1b KO): 0.6
Kp (P-gp (mdr1a/1b) [2]; FVB): 6.2
Kp (P-gp (mdr1a/1b) [2]; mdr1a/1b KO): 3.5
MDR1 Substrate? (MDR1 (P-gp) [3]; MDCK-MDR1): No
MDR1 Substrate? (MDR1 (P-gp) [3]; human, MDCK-MDR1, 5 h, 2 µM): not MDR1 substrates
Vd (in vivo; FVB and mdr1a/1b KO, in vivo): ~2 L/kg
clearance (in vivo; FVB and mdr1a/1b KO, in vivo): 119 to 134 mL/min/kg
Vd (in vivo; FVB, in vivo): 2 L/kg
clearance (in vivo; FVB, in vivo): 119 mL/min/kg
half-life (in vivo; FVB, in vivo): 18 min
Vd (in vivo; mdr1a/1b KO, in vivo): 2.3 L/kg
clearance (in vivo; mdr1a/1b KO, in vivo): 134 mL/min/kg
half-life (in vivo; mdr1a/1b KO, in vivo): 30 min
Papp A→B at 5 hr, 2 μM (MDR1 (P-gp) [4]; dog): 25.9 ×10⁻⁶ cm/s
Papp B→A at 5 hr, 2 μM (MDR1 (P-gp) [4]; dog): 24.5 ×10⁻⁶ cm/s
efflux ratio at 5 hr, 2 μM (MDR1 (P-gp) [4]; human): 0.9
Compound: Cc1ccc(/C(=C\CN2CCCC2)c2ccccn2)cc1 [Triprolidine]

Compound: CC(C)(C)c1ccc(C(O)CCCN2CCC(C(O)(c3ccccc3)c3ccccc3)CC2)cc1 (stereo not drawn) [terfenadine]
P-gp substrate or inhibitor status (P-gp): an inhibitor of and a substrate for P-gp in vitro

AUC ratio of brain tissue to plasma (WT vs. KO comparison) (P-gp (mdr1a/1b) [1]): approximately 1
Kp (P-gp (mdr1a/1b) [2]; FVB and mdr1a/1b KO): 1.2
Kp (P-gp (mdr1a/1b) [2]; FVB): 3.8
Kp (P-gp (mdr1a/1b) [2]; mdr1a/1b KO): 4.8
Vd (in vivo; FVB and mdr1a/1b KO, plasma): 2.4 to 3.7 L/kg
clearance (in vivo; FVB and mdr1a/1b KO, plasma): 70 to 80 mL/min/kg
Vd (in vivo; FVB, plasma): 3.7 L/kg
clearance (in vivo; FVB, plasma): 80 mL/min/kg
half-life (in vivo; FVB, plasma): 102 min
Vd (in vivo; mdr1a/1b KO, plasma): 2.4 L/kg
clearance (in vivo; mdr1a/1b KO, plasma): 70 mL/min/kg
half-life (in vivo; mdr1a/1b KO, plasma): 132 min
time of peak brain tissue concentration (P-gp (mdr1a/1b) [5]): 2 min
concentration at 2 min [6]: ~8000 ng/mL
Compound: OCCOCCN1CCN(C(c2ccccc2)c2ccc(Cl)cc2)CC1 (stereo not drawn) [Hydroxyzine]
